Experimental data: patent publication US10272117B2, “Methods of using an activator of cereblon for neural cell expansion and the treatment of central nervous system disorders” (Celgene Corporation, priority 2014, dated 2019)

Test system: zebrafish embryos
Test: Brain size, morphology and volume of zebrafish embryos (microscopy, MRI)
Format: in vivo
Conditions: for volume of the whole brain compared to untreated fish: MRI; for head size compared to untreated embryos: microscopic pictures; for brain size: day 2
Procedure: An aqueous solution of a 25-mer antisense morpholino oligonucleotide (AMO, Gene Tools, LLC) corresponding to the vicinity of the translation initiation codon in the cDNA sequence of the gene to be knocked down ([…] injection conditions were the same as those used for RNA) was injected into the embryos at the 1-cell stage. The sequence of AMO used for the CRBN gene knockdown is 5′-[…]-3′ (SEQ ID NO: 3). The sequence of AMO used for the Lhx2 gene knockdown is 5′-[…]-3′ (SEQ ID NO:4). The sequence of AMO used for the BRD7 gene knockdown is 5′-[…]-3′ (SEQ ID NO:1). The sequence of AMO used for the Ikaros gene knockdown is 5′-[…]-3′ (SEQ ID NO:2). […]
In order to examine the effect of antagonists of BRD7 on brain growth, BRD7 was knocked down or over-expressed in zebrafish embryos. Knockdown of BRD7 was performed by microinjection of antisense morpholino oligonucleotides (AMO). Overexpression of BRD7 was performed by microinjection of synthesized capped mRNA. AMO or capped mRNA was introduced into one-cell stage embryos by using a nitrogen gas-pressure microinjector IM 300 (Narishige). Conditions for microinjection were as follows: gas pressure was about 15 picosiemens; release period was about 30 to about 50 milliseconds per single injection; concentrations of AMOs and capped mRNA were 400 ng/μl and 250 ng/μl in nuclease-free water, respectively. Capped mRNAs were synthesized in vitro using the mMESSAGE mMachine® in vitro transcription kit (Ambion) from cDNAs cloned into pCS2+ plasmids.
The brains of the embryos were examined for morphology and volume by magnetic resonance imaging (MRI). FIGS. 9A, 9B, and 9C show microscopic pictures of the untreated, the BRD7-knockdown, and the BRD7-overexpressing zebrafish embryos, respectively. FIGS. 9D, 9E, and 9F show fluorescent microscopic pictures of the brain regions of the untreated, the BRD7-knockdown, and the BRD7-overexpressing zebrafish embryos, respectively. As shown in these figures, the BRD7-knockdown zebrafish embryos had bigger heads than the untreated embryos. […] The volume of the whole brain of the BRD7-knockdown fish was much bigger than that of the untreated fish, while for the BRD7-overexpressing fish, the brain volume was smaller.
In order to examine the effect of antagonists of Ikaros on brain growth, Ikaros was knocked down or over-expressed in zebrafish embryos. Knockdown of Ikaros was performed by microinjection of antisense morpholino oligonucleotides (AMO). Overexpression of Ikaros was performed by injection of synthesized capped mRNA. AMO or capped mRNA was introduced into one-cell stage embryos by using a nitrogen gas-pressure microinjector IM 300 (Narishige). Conditions for microinjection were as follows: gas pressure was about 15 picosiemens; release period was about 30 to about 50 milliseconds per single injection; concentrations of AMOs and capped mRNA were 400 ng/μl and 250 ng/μl in nuclease-free water, respectively. Capped mRNAs were synthesized in vitro using the mMESSAGE mMachine® in vitro transcription kit (Ambion) from cDNAs cloned into pCS2+ plasmids.
The brains of the embryos were examined for morphology and volume by magnetic resonance imaging (MRI). FIGS. 15A, 15B, and 15C show microscopic pictures of untreated, Ikaros-knockdown, and Ikaros-overexpressing zebrafish embryos at 55 hpf, respectively. As shown in these figures, the Ikaros-knockdown fish had bigger heads than the untreated embryos. […] The volume of the whole brain of the Ikaros-knockdown fish was much bigger than that of the untreated fish, while for the Ikaros-overexpressing fish, the brain volume was smaller.

Row | Substance | volume of the whole brain compared to untreated fish | head size compared to untreated embryos | brain development (22 hpf) | brain size
1 | 5′-TGTGTTTCTTGTGCTTTTTGCCCAT-3′ (all phosphorodiamidate morpholino (PMO)) [BRD7-knockdown, 25-mer antisense morpholino oligonucleotide (AMO) used for the BRD7 gene knockdown] | much bigger | bigger heads | – | –
2 | 5′-TTCCTGTGCCTCCTCAGTCTCCATC-3′ (all phosphorodiamidate morpholino (PMO)) [Ikaros-knockdown, 25-mer antisense morpholino oligonucleotide (AMO) used for the Ikaros gene knockdown] | much bigger | bigger heads | macrocephaly | enlarged brains
3 | 5′-AGAGCTGTAGCTGGTTCCCCATTTC-3′ (all phosphorodiamidate morpholino (PMO)) [CRBN-knockdown, 25-mer antisense morpholino oligonucleotide (AMO) used for the CRBN gene knockdown, reference compound] | – | – | – | smaller brains
